In ChEMBL document CHEMBL3044865, “Herbicidal Activity and Characteristics of Pyraflufen-ethyl for Controlling Broad-leaved Weeds in Cereals” (J Pestic Sci, 2002):
Active and inactive are the calls of the source. No cut-off for these calls is given here.

Columns and labels:
Triticum aestivum [1] = assay: Phytotoxicity in Triticum aestivum (wheat) assessed as injury at 0.3 g/ha post emergence application measured after 21 days after treatment; format: organism-based; settings: in vivo, other, 504 h
Alopecurus myosuroides [2] = assay: Herbicidal activity against Alopecurus myosuroides assessed as killing at 300 g/ha post emergence application measured after 21 days after treatment; format: functional
Alopecurus myosuroides [3] = assay: Herbicidal activity against Alopecurus myosuroides assessed as killing at 100 g/ha post emergence application measured after 21 days after treatment; format: functional, organism-based
Alopecurus myosuroides [4] = assay: Herbicidal activity against Alopecurus myosuroides assessed as killing at 30 g/ha post emergence application measured after 21 days after treatment; format: functional, organism-based
Alopecurus myosuroides [5] = assay: Herbicidal activity against Alopecurus myosuroides assessed as killing at 10 g/ha pre emergence application measured after 21 days after treatment; format: functional, organism-based
Alopecurus myosuroides [6] = assay: Herbicidal activity against Alopecurus myosuroides assessed as killing at 10 g/ha post emergence application measured after 21 days after treatment; format: functional
Alopecurus myosuroides [7] = assay: Herbicidal activity against Alopecurus myosuroides assessed as killing at 3 g/ha post emergence application measured after 21 days after treatment; format: functional
Alopecurus myosuroides [8] = assay: Herbicidal activity against Alopecurus myosuroides assessed as killing at 1 g/ha post emergence application measured after 21 days after treatment; format: functional, organism-based
Galium aparine [9] = assay: Herbicidal activity against Galium aparine assessed as killing at 12 g/ha measured after 21 days after treatment by time-course analysis; format: functional
Stellaria media [10] = assay: Ratio of compound ED90 to ioxynil ED90 for herbicidal activity against Stellaria media
Viola arvensis [11] = assay: Herbicidal activity against Viola arvensis assessed as killing at 5 g/ha measured after 21 days after treatment under greenhouse by time-course analysis; format: functional
[12] = target: T1, Protoporphyrinogen oxidase, chloroplastic (Nicotiana tabacum) (UniProt O24163); assay: Inhibition of Veronica hederaefolia protoporphyrinogen oxidase by post-emergence herbicidal activity assay; settings: Veronica hederifolia
T1 sequence (whole entry): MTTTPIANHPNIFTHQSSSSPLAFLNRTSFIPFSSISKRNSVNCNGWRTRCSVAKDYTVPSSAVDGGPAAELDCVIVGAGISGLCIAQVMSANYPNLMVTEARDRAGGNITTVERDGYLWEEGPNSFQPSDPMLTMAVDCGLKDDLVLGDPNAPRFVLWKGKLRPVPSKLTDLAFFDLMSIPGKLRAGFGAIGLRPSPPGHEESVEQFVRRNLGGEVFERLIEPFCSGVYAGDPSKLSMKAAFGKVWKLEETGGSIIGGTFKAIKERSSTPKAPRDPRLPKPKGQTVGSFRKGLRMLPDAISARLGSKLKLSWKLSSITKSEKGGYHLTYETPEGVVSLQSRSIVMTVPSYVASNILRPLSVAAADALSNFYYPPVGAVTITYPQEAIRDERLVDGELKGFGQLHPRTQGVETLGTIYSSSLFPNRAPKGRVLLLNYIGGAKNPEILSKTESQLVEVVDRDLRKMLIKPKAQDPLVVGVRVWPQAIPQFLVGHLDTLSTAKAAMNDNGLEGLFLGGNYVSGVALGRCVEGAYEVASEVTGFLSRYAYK

[13] = target: T2, Protoporphyrinogen IX oxidase (Cichorium intybus) (UniProt Q9SPL6); assay: Inhibition of Tripleurospermum maritimum subsp. inodorum protoporphyrinogen oxidase by post-emergence herbicidal activity assay
T2 sequence (whole entry): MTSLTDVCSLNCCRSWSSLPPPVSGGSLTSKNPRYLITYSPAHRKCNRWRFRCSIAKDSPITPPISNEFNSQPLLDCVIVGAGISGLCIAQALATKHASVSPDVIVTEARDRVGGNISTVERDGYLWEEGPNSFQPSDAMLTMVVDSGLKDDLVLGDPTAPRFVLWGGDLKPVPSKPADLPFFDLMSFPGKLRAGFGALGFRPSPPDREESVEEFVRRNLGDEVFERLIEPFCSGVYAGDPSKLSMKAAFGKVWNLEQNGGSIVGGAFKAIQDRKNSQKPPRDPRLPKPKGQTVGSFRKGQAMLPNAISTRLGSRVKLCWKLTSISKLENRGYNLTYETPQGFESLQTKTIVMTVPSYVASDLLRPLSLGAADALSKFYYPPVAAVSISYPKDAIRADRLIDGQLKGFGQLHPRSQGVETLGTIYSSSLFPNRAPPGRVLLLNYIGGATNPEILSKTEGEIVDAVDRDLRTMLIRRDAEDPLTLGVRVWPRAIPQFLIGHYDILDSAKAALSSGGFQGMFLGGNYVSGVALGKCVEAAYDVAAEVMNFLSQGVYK

Veronica hederifolia = assay: Herbicidal activity against Veronica hederaefolia assessed as killing at 1 g/ha post emergence application measured after 21 days after treatment; format: functional
Viola arvensis [14] = assay: Herbicidal activity against Viola arvensis assessed as killing at 300 g/ha post emergence application measured after 21 days after treatment; format: functional
Viola arvensis [15] = assay: Herbicidal activity against Viola arvensis assessed as killing at 0.3 g/ha post emergence application measured after 21 days after treatment; format: functional
Stellaria media [16] = assay: Herbicidal activity against Stellaria media assessed as killing at 300 g/ha post emergence application measured after 21 days after treatment; format: functional
Stellaria media [17] = assay: Herbicidal activity against Stellaria media assessed as killing at 30 g/ha post emergence application measured after 21 days after treatment; format: functional
Stellaria media [18] = assay: Herbicidal activity against Stellaria media assessed as killing at 1 g/ha post emergence application measured after 21 days after treatment; format: functional
Stellaria media [19] = assay: Herbicidal activity against Stellaria media assessed as killing at 0.3 g/ha post emergence application measured after 21 days after treatment; format: functional
Galium aparine [20] = assay: Herbicidal activity against Galium aparine assessed as killing at 30 g/ha post emergence application measured after 21 days after treatment; format: functional
Galium aparine [21] = assay: Herbicidal activity against Galium aparine assessed as killing at 3 g/ha post emergence application measured after 21 days after treatment; format: functional
Avena fatua [22] = assay: Herbicidal activity against Avena fatua assessed as killing at 300 g/ha post emergence application measured after 21 days after treatment; format: functional
Avena fatua [23] = assay: Herbicidal activity against Avena fatua assessed as killing at 10 g/ha pre emergence application measured after 21 days after treatment; format: functional, organism-based
Avena fatua [24] = assay: Herbicidal activity against Avena fatua assessed as killing at 3 g/ha post emergence application measured after 21 days after treatment; format: functional
Viola arvensis [25] = assay: Herbicidal activity against Viola arvensis assessed as killing at 10 g/ha post emergence application measured after 21 days after treatment; format: functional
Hordeum vulgare [26] = assay: Phytotoxicity in Hordeum vulgare (barley) assessed as injury at 100 g/ha pre emergence application measured after 21 days after treatment; format: organism-based; settings: in vivo, other, 504 h
Hordeum vulgare [27] = assay: Phytotoxicity in Hordeum vulgare (barley) assessed as injury at 10 g/ha pre emergence application measured after 21 days after treatment; format: organism-based; settings: in vivo, other, 504 h
Hordeum vulgare [28] = assay: Phytotoxicity in Hordeum vulgare (barley) assessed as injury at 10 g/ha post emergence application measured after 21 days after treatment; format: organism-based; settings: in vivo, other, 504 h
Hordeum vulgare [29] = assay: Phytotoxicity in Hordeum vulgare (barley) assessed as injury at 1 g/ha post emergence application measured after 21 days after treatment; format: organism-based; settings: in vivo, other, 504 h
Triticum aestivum [30] = assay: Phytotoxicity in Triticum aestivum (wheat) assessed as injury at 100 g/ha pre emergence application measured after 21 days after treatment; format: organism-based; settings: in vivo, other, 504 h
Triticum aestivum [31] = assay: Phytotoxicity in Triticum aestivum (wheat) assessed as injury at 30 g/ha pre emergence application measured after 21 days after treatment; format: organism-based; settings: in vivo, other, 504 h

Compound: CCOC(=O)COc1cc(-c2nn(C)c(OC(F)F)c2Cl)c(F)cc1Cl [PYRAFLUFEN-ETHYL]
- Activity (Triticum aestivum [1]): Non-toxic
- Activity (Alopecurus myosuroides [2]): 1%
- Activity (Alopecurus myosuroides [3]): inactive
- Activity (Alopecurus myosuroides [4]): inactive
- Activity (Alopecurus myosuroides [5]): inactive
- Activity (Alopecurus myosuroides [6]): 11%
- Activity (Alopecurus myosuroides [7]): 1%
- Activity (Alopecurus myosuroides [8]): inactive
- Activity (Galium aparine [9]): >90%
- Ratio (Stellaria media [10]): 166
- Activity (Viola arvensis [11]): 90%
- ED90 [12]: 1 gAi/ha
- ED90 [13]: 0.3 gAi/ha
- Activity (Veronica hederifolia): 90%
- Activity (Viola arvensis [14]): 50%
- Activity (Viola arvensis [15]): 21%
- Activity (Stellaria media [16]): 100%
- Activity (Stellaria media [17]): 40%
- Activity (Stellaria media [18]): 100%
- Activity (Stellaria media [19]): 90%
- Activity (Galium aparine [20]): 21%
- Activity (Galium aparine [21]): 100%
- Activity (Avena fatua [22]): 21%
- Activity (Avena fatua [23]): inactive
- Activity (Avena fatua [24]): 1%
- Activity (Viola arvensis [25]): 100%
- Activity (Hordeum vulgare [26]): 1%
- Activity (Hordeum vulgare [27]): Non-toxic
- Activity (Hordeum vulgare [28]): 11%
- Activity (Hordeum vulgare [29]): Non-toxic
- Activity (Triticum aestivum [30]): 1%
- Activity (Triticum aestivum [31]): Non-toxic
